Measured values published in patent US11046710B2, “Sulfonamide compounds” (DAIICHI SANKYO COMPANY, LIMITED, priority 2016, dated 2021).

system: plasma ALP (80-90% containing TNAP); assay: Inhibitory test of plasma TNAP activity in B6 mouse; assay type: in vivo; conditions: oral, dose 0.3 mg/kg, average 0-6 h after administration
Procedure: After blood sampling from the tail vein using a heparin-treated hematocrit capillary tube (EM Meister Hematocrit Capillary Tube, AS ONE Corp.) (as the sample before compound administration), each test compound suspended in a 0.5% methylcellulose solution (powder purchased from Wako Pure Chemical Industries, Ltd. was adjusted to 0.5% with Otsuka distilled water) was administered orally to the mouse. 1, 2, 4, 6, and 24 hours after the administration, blood was collected from the tail vein using a heparin-treated hematocrit capillary tube to obtain a plasma sample. The plasma sample was added to an assay buffer (1 M Tris, 1 M MgCl2, 20 mM ZnCl2, and water, pH 7.5), and the mixture was left standing for 5 minutes. Then, the absorbance at 405 nm was measured and used as a blank. The substrate pNPP was added to the plasma sample and incubated at room temperature for 180 minutes. Then, the absorbance (ABS: 405 nm) was measured using a microplate reader (model plus 384, Molecular Devices, LLC), and the concentration of produced p-nitrophenol was calculated. The blank was subtracted from all measurement values to calculate TNAP activity at each time point with the TNAP activity of the sample before compound administration defined as 100%. The pharmaceutical effect of the test compound was evaluated by the average inhibition of plasma ALP (80-90% containing TNAP) activity for 6 hours from 0 hour to 6 hour after the administration of the test compound. It was calculated according to the following expression: 100−((plasma ALP activity at 0 hr+plasma ALP activity at 1 hr)*½+(plasma ALP activity at 1 hr+plasma ALP activity at 2 hr)*½+(plasma ALP activity at 2 hr+plasma ALP activity at 4 hr)*2/2+(plasma ALP activity at 4 hr+plasma ALP activity at 6 hr)*2/2)/6 The results are shown in Table 2.

Point of comparison: O=C1c2cc([N-]S(=O)(=O)c3cc(Cl)ccc3OC(F)(F)F)cnc2OC[C@H]2[C@@H](O)CCN12.[K+] [Example 43, Potassium {[5-chloro-2-(trifluoromethoxy)phenyl]sulfonyl}[(9S,9aS)-9-hydroxy-5-oxo-8,9,9a,10-tetrahydro-5H,7H-pyrido[3,2-f]pyrrolo[2,1-c][1,4]oxazepin-3-yl]azanide], “Plasma ALP inhibition (6 h ave. inhibition %)” value 65.5%. Against it:
- O=C1c2cc([N-]S(=O)(=O)c3cc(Cl)ccc3OC(F)(F)F)cnc2OC[C@H]2C[C@H](O)CN12.[K+] [Example 33, Potassium {[5-chloro-2-(trifluoromethoxy)phenyl]sulfonyl}[(8S,9aR)-8-hydroxy-5-oxo-8,9,9a,10-tetrahydro-5H,7H-pyrido[3,2-f]pyrrolo[2,1-c][1,4]oxazepin-3-yl]azanide] — lower, 59.0%
- O=C1c2cc([N-]S(=O)(=O)c3cc(Cl)ccc3OC(F)(F)F)cnc2OC[C@H]2C[C@@H](O)CN12.[K+] [Example 38, Potassium {[5-chloro-2-(trifluoromethoxy)phenyl]sulfonyl}[(8R,9aR)-8-hydroxy-5-oxo-8,9,9a,10-tetrahydro-5H,7H-pyrido[3,2-f]pyrrolo[2,1-c][1,4]oxazepin-3-yl]azanide] — the same, 65.5%

same assay, conditions: oral, dose 1 mg/kg, average 0-6 h after administration

Point of comparison: COc1ccc(Cl)cc1S(=O)(=O)[N-]c1cnc2c(c1)CN1C(=O)[C@@H](O)C[C@H]1CO2.[K+] [Example 55, Potassium [(5-chloro-2-methoxyphenyl)sulfonyl][(8S,9aS)-8-hydroxy-7-oxo-8,9,9a,10-tetrahydro-5H,7H-pyrido[3,2-f]pyrrolo[2,1-c][1,4]oxazepin-3-yl]azanide], “Plasma ALP inhibition (6 h ave. inhibition %)” value 65.7%. Against it:
- CNC(=O)O[C@H]1C[C@@H]2COc3ncc([N-]S(=O)(=O)c4cc(Cl)ccc4OC)cc3C(=O)N2C1.[K+] [Example 49, Potassium [(5-chloro-2-methoxyphenyl)sulfonyl]{(8S,9aR)-8-[(methylcarbamoyl)oxy]-5-oxo-8,9,9a,10-tetrahydro-5H,7H-pyrido[3,2-f]pyrrolo[2,1-c][1,4]oxazepin-3-yl}azanide] — lower, 52.8%
- COC(=O)N[C@@H]1C[C@@H]2COc3ncc([N-]S(=O)(=O)c4cc(Cl)ccc4OC)cc3C(=O)N2C1.[K+] [Example 51, Potassium [(5-chloro-2-methoxyphenyl)sulfonyl]{(8R,9aR)-8-[(methoxycarbonyl)amino]-5-oxo-8,9,9a,10-tetrahydro-5H, 7H-pyrido[3,2-f]pyrrolo[2,1-c][1,4]oxazepin-3-yl}azanide] — lower, 59.7%
- CCOc1ccc(F)cc1S(=O)(=O)[N-]c1cnc2c(c1)CN1C(=O)COC[C@H]1CO2.[K+] [Example 62, Potassium [(2-ethoxy-5-fluorophenyl)sulfonyl][(10aS)-7-oxo-7,8,10a,11-tetrahydro-5H,10H-[1,4]oxazino[3,4-c]pyrido[3,2-f][1,4]oxazepin-3-yl]azanide] — higher, 76.0%

same assay, conditions: oral, dose 3 mg/kg, average 0-6 h after administration

Point of comparison: CCOc1ccc(F)cc1S(=O)(=O)[N-]c1cnc2c(c1)-c1ccnn1[C@@H](C)CO2.[K+] [Example 19, Potassium [(2-ethoxy-5-fluorophenyl)sulfonyl][(5S)-5-methyl-5,6-dihydropyrazolo[1,5-d]pyrido[3,2-f][1,4]oxazepin-10-yl]azanide], “Plasma ALP inhibition (6 h ave. inhibition %)” value 27.5%. Against it:
- CCOc1ncc(F)cc1S(=O)(=O)[N-]c1cnc2c(c1)-c1ccnn1CCO2.[K+] [Example 15, Potassium 5,6-dihydropyrazolo[1,5-d]pyrido[3,2-f][1,4]oxazepin-10-yl[(2-ethoxy-5-fluoropyridin-3-yl)sulfonyl]azanide] — higher, 61.4%
- COc1ncc(Cl)cc1S(=O)(=O)[N-]c1cnc2c(c1)-c1ccnn1[C@@H](C)CO2.[K+] [Example 22, potassium [(5-chloro-2-methoxypyridin-3-yl)sulfonyl][(5S)-5-methyl-5,6-dihydropyrazolo[1,5-d]pyrido[3,2-f][1,4]oxazepin-10-yl]azanide] — higher, 28.4%
- CCOc1ncc(F)cc1S(=O)(=O)[N-]c1cnc2c(c1)-c1ccnn1[C@@H](C)CO2.[K+] [Example 25, potassium [(2-ethoxy-5-fluoropyridin-3-yl)sulfonyl][(5S)-5-methyl-5,6-dihydropyrazolo[1,5-d]pyrido[3,2-f][1,4]oxazepin-10-yl]azanide] — higher, 55.5%
